Laboratory results published in PMC3883635, “Two Different Conformations in Hepatitis C Virus p7 Protein Account for Proton Transport and Dye Release” (PLoS ONE, 2014).

Biological target: T1, HCV-p7 (synthetic p7_1-63) (Hepatitis C virus (isolate H77), UniProt P27958)
T1 construct: mature p7 of the HCV genome polyprotein; synthetic peptide (solid-phase), extra N-terminal Met (residue 0); 63 residues plus 1; in DPhPC membranes
Test: single channel recording in black lipid membrane
Assay type: biochemical
Details: DPhPC membranes; 10 µM methanol solution of p7 added; read after five minutes; concentration of HMA not in text

T1 sequence (P27958 747-809): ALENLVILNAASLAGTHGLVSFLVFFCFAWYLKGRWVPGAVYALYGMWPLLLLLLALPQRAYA

## N=C(N)NC(=O)c1nc(Cl)c(N2CCCCCC2)nc1N [HMA]
  channel block: HCV-p7 ion channel activity is blocked by HMA in a full trace of different voltages
